Reference: the NIST ThermoML archive (doi:10.1021/je800218g)
± gives the expanded uncertainty stated by the source.

Experiment: activity coefficient (dimensionless); of the first substance listed, at infinite dilution; xn = mol fraction of the nth substance listed
Conditions: Liquid, Chromatography, x1 = 0

activity coefficient (303.15 K)	activity coefficient (313.15 K)	activity coefficient (323.15 K)	activity coefficient (333.15 K)	activity coefficient (343.15 K)	activity coefficient (353.15 K)	activity coefficient (363.15 K)	Compound
101 ± 11	95.3 ± 10	90.6 ± 9.5	85.3 ± 9	77.4 ± 8.2	74.5 ± 7.8	69.5 ± 7.3	CCCCCC [hexane] + CCn1cc[n+](C)c1.F[B-](F)(F)F
2.94 ± 0.31	2.92 ± 0.31	2.89 ± 0.3	2.87 ± 0.3	2.83 ± 0.3	2.79 ± 0.29	2.75 ± 0.29	CCOC(C)=O [ethyl acetate] + CCn1cc[n+](C)c1.F[B-](F)(F)F
1110 ± 120	984 ± 100	861 ± 91	751 ± 79	643 ± 68	545 ± 58	456 ± 48	CCCCCCCCCC [decane] + CCn1cc[n+](C)c1.F[B-](F)(F)F
154 ± 16	138 ± 15	124 ± 13	111 ± 12	104 ± 11	96 ± 10	90.4 ± 9.5	CCCCCCC [heptane] + CCn1cc[n+](C)c1.F[B-](F)(F)F
6.49 ± 0.68	6.3 ± 0.66	6.11 ± 0.64	5.89 ± 0.62	5.58 ± 0.59	5.44 ± 0.57	5.31 ± 0.56	CCc1ccccc1 [ethylbenzene] + CCn1cc[n+](C)c1.F[B-](F)(F)F
1.87 ± 0.2	1.85 ± 0.19	1.83 ± 0.19	1.82 ± 0.19	1.8 ± 0.19	1.77 ± 0.18	1.74 ± 0.18	C1CCOC1 [tetrahydrofuran] + CCn1cc[n+](C)c1.F[B-](F)(F)F
93 ± 9.8	79.7 ± 8.4	67.7 ± 7.1	58.9 ± 6.2	51.4 ± 5.4	43.3 ± 4.6	32.3 ± 3.4	CC1CCCCC1 [methylcyclohexane] + CCn1cc[n+](C)c1.F[B-](F)(F)F
1.12 ± 0.12	1.16 ± 0.12	1.21 ± 0.12	1.25 ± 0.13	1.32 ± 0.14	1.36 ± 0.14	1.39 ± 0.14	ClCCl [dichloromethane] + CCn1cc[n+](C)c1.F[B-](F)(F)F
0.892 ± 0.091	0.875 ± 0.09	0.853 ± 0.087	0.832 ± 0.085	0.814 ± 0.084	0.792 ± 0.082	0.769 ± 0.079	CC#N [acetonitrile] + CCn1cc[n+](C)c1.F[B-](F)(F)F
216 ± 23	201 ± 21	187 ± 20	173 ± 18	158 ± 17	149 ± 16	140 ± 15	CCCCCCCC [octane] + CCn1cc[n+](C)c1.F[B-](F)(F)F
21.8 ± 2.3	19.6 ± 2.1	16.6 ± 1.8	14.4 ± 1.5	12.8 ± 1.3	10.5 ± 1.1	9.13 ± 0.96	C1=CCCCC1 [cyclohexene] + CCn1cc[n+](C)c1.F[B-](F)(F)F
3.38 ± 0.35	3.44 ± 0.36	3.49 ± 0.37	3.56 ± 0.37	3.62 ± 0.38	3.65 ± 0.38	3.73 ± 0.39	C=Cc1ccccc1 [styrene] + CCn1cc[n+](C)c1.F[B-](F)(F)F
1.36 ± 0.14	1.38 ± 0.14	1.39 ± 0.14	1.41 ± 0.15	1.43 ± 0.15	1.46 ± 0.15	1.5 ± 0.15	ClC(Cl)Cl [trichloromethane] + CCn1cc[n+](C)c1.F[B-](F)(F)F
158 ± 17	143 ± 15	124 ± 13	112 ± 12	101 ± 11	85.8 ± 9	75.3 ± 7.9	CC(C)CC(C)(C)C [2,2,4-trimethylpentane] + CCn1cc[n+](C)c1.F[B-](F)(F)F
319 ± 34	294 ± 31	272 ± 29	254 ± 27	248 ± 26	235 ± 25	224 ± 24	CCCCCCCCC [nonane] + CCn1cc[n+](C)c1.F[B-](F)(F)F
68.8 ± 7.2	62.5 ± 6.6	57.6 ± 6.1	53.9 ± 5.7	49 ± 5.2	45.7 ± 4.8	42.1 ± 4.4	CCCCC [pentane] + CCn1cc[n+](C)c1.F[B-](F)(F)F
70.5 ± 7.4	60.9 ± 6.4	49.7 ± 5.2	39.6 ± 4.2	31.2 ± 3.3	27.5 ± 2.9	21.9 ± 2.3	C1CCCCC1 [cyclohexane] + CCn1cc[n+](C)c1.F[B-](F)(F)F
1.35 ± 0.14	1.4 ± 0.14	1.42 ± 0.15	1.44 ± 0.15	1.47 ± 0.15	1.49 ± 0.15	1.51 ± 0.16	C1COCCO1 [1,4-dioxane] + CCn1cc[n+](C)c1.F[B-](F)(F)F
2.13 ± 0.22	2.11 ± 0.22	2.09 ± 0.22	2.05 ± 0.21	2.02 ± 0.21	1.99 ± 0.21	1.96 ± 0.21	c1ccccc1 [benzene] + CCn1cc[n+](C)c1.F[B-](F)(F)F

Compound	activity coefficient (303.15 K)	activity coefficient (313.15 K)	activity coefficient (323.15 K)	activity coefficient (333.15 K)	activity coefficient (343.15 K)	activity coefficient (353.15 K)	activity coefficient (363.15 K)
Cc1ccccc1C [1,2-dimethylbenzene] + CCn1cc[n+](C)c1.F[B-](F)(F)F	4.73 ± 0.5	4.69 ± 0.49	4.64 ± 0.49	4.58 ± 0.48	4.5 ± 0.47	4.41 ± 0.46	4.34 ± 0.46
Cc1ccc(C)cc1 [1,4-dimethylbenzene] + CCn1cc[n+](C)c1.F[B-](F)(F)F	5.41 ± 0.57	5.3 ± 0.56	5.14 ± 0.54	5.03 ± 0.53	4.96 ± 0.52	4.88 ± 0.51	4.76 ± 0.5
ClC(Cl)(Cl)Cl [tetrachloromethane] + CCn1cc[n+](C)c1.F[B-](F)(F)F	4.31 ± 0.45	4.41 ± 0.46	4.56 ± 0.48	4.66 ± 0.49	4.8 ± 0.5	4.89 ± 0.51	4.98 ± 0.52
Cc1cccc(C)c1 [1,3-dimethylbenzene] + CCn1cc[n+](C)c1.F[B-](F)(F)F	5.88 ± 0.62	5.71 ± 0.6	5.57 ± 0.59	5.32 ± 0.56	5.17 ± 0.54	4.98 ± 0.52	4.83 ± 0.51
CC(C)=O [acetone] + CCn1cc[n+](C)c1.F[B-](F)(F)F	1.23 ± 0.13	1.26 ± 0.13	1.27 ± 0.13	1.29 ± 0.13	1.31 ± 0.14	1.33 ± 0.14	1.33 ± 0.14
Cc1ccccc1 [toluene] + CCn1cc[n+](C)c1.F[B-](F)(F)F	3.68 ± 0.39	3.66 ± 0.38	3.62 ± 0.38	3.56 ± 0.37	3.52 ± 0.37	3.48 ± 0.37	3.4 ± 0.36
